For test [1], the system named is HCC827 cells. In words: In vitro cell viability, lung cancer HCC827. It counts as cell-based, human. The settings on record: 5 μM, 72 h; relative to MIA602 = 1; Table 3A. On the procedure:
(§1) The inhibitory effects of the various synthesized GHRH antagonists were tested in cell proliferation assays in various human cancer cell lines including stomach cancer (KATOIII, N87), colon cancer (HT-29), urothelial cancer (J82, RT4), pancreatic cancer (PANC-1, CFPAC-1), prostatic cancer (PC3), breast cancer (MX-1, HCC1806), ovarian cancer (SK-OV-3, OVCAR-3) and lung cancer (HCC827, H460).
(§2) Cell culture. Human cancer cell lines including pancreatic (PANC-1 and CFPAC-1), lung (HCC827 and H460), stomach (NCI-N87 and KATOIII), urothelial (J82, RT4), prostatic (PC3), breast (MX-1 and HCC 1806), colorectal (HT-29), and ovarian (SK-OV-3 and OVCAR-3) were obtained from the American Type Culture Collection (ATCC) and cultured at 37° C. in a humidified 95% air/5% CO2 atmosphere in the medium recommended by ATCC.
(§3) In vitro cell viability. Cell viability was analyzed as follows: cancer cells including pancreatic (PANC-1 and CFPAC-1), lung (HCC827 and H460), stomach (NCI-N87 and KATOIII), urothelial (J82, RT4), prostatic (PC3) and breast (MX-1 and HCC 1806), colorectal (HT-29) and ovarian (SK-OV-3 and OVCAR-3) were grown on 96 well plates to ˜60% confluence, the cells were starved for 24 h in culture medium containing 0.5% FBS. Cells were then treated with GHRH antagonists MIA602 AVR compounds at concentrations of 1, 2.5 or 5 μM, or vehicle (0.1% DMSO) in quintuplicates for 72 hours. The medium was replaced every 48 hours. Cell viability was measured using CellTiter 96 aqueous one solution kit (Promega). Inhibitory effects of tested AVR compounds in comparison to that of MIA602 are presented as inhibitory potency.
(§4) Inhibitory effects of selected AVR compounds in comparison to that of MIA602 are presented as inhibitory potency (e.g., percentage of inhibition). […] The cell lines tested including lung cancer HCC827 (FIG. 2A), pancreatic cancer CFPAC-1 (FIG. 2B), stomach cancer N87 (FIG. 2C), colon cancer HT-29 (FIG. 2D), breast cancers MX-1 and HCC1806 (FIGS. 2E, F). Based on the results of cell proliferation assay after cancer cells were treated with antagonist at concentration of 5 μM for 72H, the relative inhibitory potency of AVR antagonists in comparison to MIA-602 is summarized in Table 3 A and B. Over 60 AVR compounds were tested in 12 cancer cell lines.
(§5) Based on the results of cell proliferation assay after cancer cells were treated with antagonist at concentration of 5 µM for 72H, * at concentration of 2 µM for 72 H.

In test [2] the test system is KATOIII cells. Nature of the test: In vitro cell viability, stomach cancer KATOIII. Conditions: 5 μM, 72 h; relative to MIA602 = 1; Table 3A. It counts as cell-based, human. On the procedure:
as §1, §2, §3, §4

Test [3] has as its system CFPAC-1 cells. Nature of the test: In vitro cell viability, pancreatic cancer CFPAC-1. The format is cell-based, human. The settings on record: 5 μM, 72 h; relative to MIA602 = 1; Table 3A. On the procedure:
as §1, §2, §3, §4, §5

Test [4] concerns the target T1, membrane GHRH-receptors on human anterior pituitary cells (Homo sapiens, UniProt Q02643).
T1 construct: Human pituitary was purchased from the National Hormone and Peptide Program; tissue National Hormone and Peptide Program; host or cells: human pituitary membrane fractions
T1 sequence (Q02643 23-423): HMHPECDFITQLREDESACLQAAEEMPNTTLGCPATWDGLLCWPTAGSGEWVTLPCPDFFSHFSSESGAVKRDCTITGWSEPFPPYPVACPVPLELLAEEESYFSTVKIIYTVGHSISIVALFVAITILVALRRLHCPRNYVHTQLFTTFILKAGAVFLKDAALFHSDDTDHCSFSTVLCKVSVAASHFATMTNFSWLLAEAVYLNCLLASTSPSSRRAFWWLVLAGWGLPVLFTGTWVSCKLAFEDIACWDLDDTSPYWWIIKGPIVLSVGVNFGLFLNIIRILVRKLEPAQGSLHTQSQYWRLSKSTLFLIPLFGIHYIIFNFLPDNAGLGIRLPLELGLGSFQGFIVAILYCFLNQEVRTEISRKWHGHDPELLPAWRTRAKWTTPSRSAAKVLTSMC
In words: Competitive receptor binding, displacement of 125I-[His1,Nle27]-hGH-RH(1-32)NH2 from human pituitary membranes. The method, then:
Receptor binding affinities in vitro. Preparation of human pituitary membrane fractions and receptor binding of analogs of GH-RH were performed (Halmos G, Rekasi Z, Szoke B, Schally A V. (1993) Receptor 3:87-97). Human pituitary was purchased from the National Hormone and Peptide Program. […] Relative affinities compared to hGH-RH(1-29)NH2 were calculated as the ratio of IC50 (dose causing 50% inhibition of specific binding to receptors) of the tested peptides to the IC50 of hGH-RH(1-29)NH2. The values were calculated from technical duplicate tubes.
Nineteen new AVR analogs of GHRH were tested in the receptor binding assay. Table 6 presents the IC50 values of GHRH antagonists to membrane GHRH-receptors binding on human anterior pituitary cells.

The results in this text go back to patent publication US11993640B2, “Treating inflammatory lung disease” (United States Government as represented by the Department …, priority 2019, dated 2024).

Entries after “also recorded” stand apart in the source; their conditions may differ. Non-standard residues stand in square brackets, D forms with d. Residues, ends and D or L forms follow the SMILES beside them. *: point of attachment. Phenylacetyl(2,3,4,5,6-F5) = O=C(Cc1c(F)c(F)c(F)c(F)c1F)*; Phe(F5) = N[C@@H](Cc1c(F)c(F)c(F)c(F)c1F)C(=O)O; Phe(4-Cl) = N[C@@H](Cc1ccc(Cl)cc1)C(=O)O; hArg = N=C(N)NCCCC[C@H](N)C(=O)O; 12Ado = NCCCCCCCCCCCC(=O)O; Nle = CCCC[C@H](N)C(=O)O; Orn = NCCC[C@H](N)C(=O)O; Abu = CC[C@H](N)C(=O)O; PhAc = O=C(Cc1ccccc1)*

Turning to `CCCC[C@H](NC(=O)[C@@H](NC(=O)[C@H](CC(=O)O)NC(=O)[C@H](CCC(N)=O)NC(=O)[C@H](CC(C)C)NC(=O)[C@H](CC(C)C)NC(=O)[C@H](CCCCN)NC(=O)[C@H](CCCNC(=N)N)NC(=O)[C@H](C)NC(=O)[C@H](CO)NC(=O)[C@H](CC(C)C)NC(=O)[C@H](CCC(N)=O)NC(=O)[C@H](CC)NC(=O)[C@H](CC(C)C)NC(=O)[C@@H](NC(=O)[C@H](CCCCN)NC(=O)[C@H](CCCNC(=N)N)NC(=O)[C@H](Cc1ccc(OC)cc1)NC(=O)[C@H](CCCNC(=N)N)NC(=O)[C@H](CC(N)=O)NC(=O)[C@@H](NC(=O)[C@H](Cc1ccc(Cl)cc1)NC(=O)[C@@H](NC(=O)[C@H](C)NC(=O)[C@H](CC(=O)O)NC(=O)[C@@H](CCCNC(=N)N)NC(=O)[C@H](Cc1ccc(O)cc1)NC(=O)CCCCCCCCCCCNC(=O)Cc1ccccc1)[C@@H](C)CC)[C@@H](C)O)C(C)C)[C@@H](C)CC)C(=O)N[C@H](CCCNC(=N)N)C(=O)N[C@@H](CCCCNC(=N)N)C(=O)NC` [AVR-234, PhAC-Ada-Tyr-DArg-Asp-Ala-Ile-Cpa-Thr-Asn-Arg-Tyr(Me)-Arg-Lys-Val-Leu-Abu-Gln-Leu-Ser-Ala-Arg-Lys-Leu-Leu-Gln-Asp-Ile-Nle-DArg-Har-NHCH3] ({PhAc-12Ado}-Y[dR]DAI[Phe(4-Cl)]TNRY(Me)RKVL[Abu]QLSARKLLQDI[Nle][dR][hArg]-NHMe), the “Relative inhibitory potency, Lung HCC827” value in test [1] is 4.510. Also, in test [2], the “Relative inhibitory potency, Stomach KATOIII” value is given as 1.709. The “Relative inhibitory potency, Pancreatic CFPAC-1” value in test [3] is 2.205.
As for `CCCC[C@H](NC(=O)[C@@H](NC(=O)[C@H](CC(=O)O)NC(=O)[C@H](CCC(N)=O)NC(=O)[C@H](CC(C)C)NC(=O)[C@H](CC(C)C)NC(=O)[C@H](CCCN)NC(=O)[C@H](Cc1c[nH]cn1)NC(=O)[C@H](C)NC(=O)[C@H](CO)NC(=O)[C@H](CC(C)C)NC(=O)[C@H](CCC(N)=O)NC(=O)[C@H](CC)NC(=O)[C@H](CC(C)C)NC(=O)[C@@H](NC(=O)[C@H](CCCN)NC(=O)[C@H](Cc1c[nH]cn1)NC(=O)[C@H](Cc1c(F)c(F)c(F)c(F)c1F)NC(=O)[C@H](CCCCNC(=N)N)NC(=O)[C@H](C)NC(=O)[C@@H](NC(=O)[C@H](Cc1ccc(Cl)cc1)NC(=O)[C@@H](NC(=O)[C@H](C)NC(=O)[C@H](CC(=O)O)NC(=O)[C@@H](CCCNC(=N)N)NC(=O)[C@H](Cc1ccc(O)cc1)NC(=O)CCCCCCCCCCCNC(=O)Cc1c(F)c(F)c(F)c(F)c1F)[C@@H](C)CC)[C@@H](C)O)C(C)C)[C@@H](C)CC)C(=O)N[C@H](CCCNC(=N)N)C(=O)N[C@@H](CCCCNC(=N)N)C(=O)NC` [AVR-542, 5FPhAC-Ada-Tyr-DArg-Asp-Ala-Ile-Cpa-Thr-Ala-Har-5FPhe-His-Orn-Val-Leu-Abu-Gln-Leu-Ser-Ala-His-Orn-Leu-Leu-Gln-Asp-Ile-Nle-DArg-Har-NHCH3] ({Phenylacetyl(2,3,4,5,6-F5)-12Ado}-Y[dR]DAI[Phe(4-Cl)]TA[hArg][Phe(F5)]H[Orn]VL[Abu]QLSAH[Orn]LLQDI[Nle][dR][hArg]-NHMe), the “Relative inhibitory potency, Lung HCC827” value in test [1] amounted to 2.649. Also, in test [4] (human anterior pituitary membranes, mean of two to three determinations, read-out: IC50), the 50% inhibitory concentration (IC50) was 0.21 nM. Further, in test [3], the “Relative inhibitory potency, Pancreatic CFPAC-1” value is recorded as 1.312.
For `CCCC[C@H](NC(=O)[C@@H](NC(=O)[C@H](CC(=O)O)NC(=O)[C@H](CCC(N)=O)NC(=O)[C@H](CC(C)C)NC(=O)[C@H](CC(C)C)NC(=O)[C@H](CCCN)NC(=O)[C@H](Cc1c[nH]cn1)NC(=O)[C@H](C)NC(=O)[C@H](CO)NC(=O)[C@H](CC(C)C)NC(=O)[C@H](CCC(N)=O)NC(=O)[C@H](CC)NC(=O)[C@H](CC(C)C)NC(=O)[C@@H](NC(=O)[C@H](CCCN)NC(=O)[C@H](Cc1c[nH]cn1)NC(=O)[C@H](Cc1ccc(OC)cc1)NC(=O)[C@H](CCCCNC(=N)N)NC(=O)[C@H](C)NC(=O)[C@@H](NC(=O)[C@H](Cc1c(F)c(F)c(F)c(F)c1F)NC(=O)[C@@H](NC(=O)[C@H](C)NC(=O)[C@H](CC(=O)O)NC(=O)[C@@H](CCCNC(=N)N)NC(=O)[C@H](Cc1ccc(O)cc1)NC(=O)CCCCCCCCCCCNC(=O)Cc1c(F)c(F)c(F)c(F)c1F)[C@@H](C)CC)[C@@H](C)O)C(C)C)[C@@H](C)CC)C(=O)N[C@H](CCCNC(=N)N)C(=O)N[C@@H](CCCCNC(=N)N)C(=O)NCCCCCCCCCCCC(N)=O` [AVR-553, 5FPhAC-Ada-Tyr-DArg-Asp-Ala-Ile-5FPhe-Thr-Ala-Har-Tyr(Me)-His-Orn-Val-Leu-Abu-Gln-Leu-Ser-Ala-His-Orn-Leu-Leu-Gln-Asp-Ile-Nle-DArg-Har-Ada-NH2] ({Phenylacetyl(2,3,4,5,6-F5)-12Ado}-Y[dR]DAI[Phe(F5)]TA[hArg]Y(Me)H[Orn]VL[Abu]QLSAH[Orn]LLQDI[Nle][dR][hArg][12Ado]-NH2), the “Binding affinity to membrane receptors of human pituitary cells” value in test [4] is recorded as “higher binding affinity in comparison to MIA-602; also recorded: highest binding affinities”.
`CCCC[C@H](NC(=O)[C@@H](NC(=O)[C@H](CC(=O)O)NC(=O)[C@H](CCC(N)=O)NC(=O)[C@H](CC(C)C)NC(=O)[C@H](CC(C)C)NC(=O)[C@H](CCCN)NC(=O)[C@H](Cc1c[nH]cn1)NC(=O)[C@H](C)NC(=O)[C@H](CO)NC(=O)[C@H](CC(C)C)NC(=O)[C@H](CCC(N)=O)NC(=O)[C@H](CC)NC(=O)[C@H](CC(C)C)NC(=O)[C@@H](NC(=O)[C@H](CCCCN)NC(=O)[C@H](CCCNC(=N)N)NC(=O)[C@H](Cc1ccc(OC)cc1)NC(=O)[C@H](CCCNC(=N)N)NC(=O)[C@H](CC(N)=O)NC(=O)[C@@H](NC(=O)[C@H](Cc1ccc(Cl)cc1)NC(=O)[C@@H](NC(=O)[C@H](C)NC(=O)[C@H](CC(=O)O)NC(=O)[C@@H](CCCNC(=N)N)NC(=O)[C@H](Cc1ccc(O)cc1)NC(=O)CCCCCCCCCCCNC(=O)Cc1c(F)c(F)c(F)c(F)c1F)[C@@H](C)CC)[C@@H](C)O)C(C)C)[C@@H](C)CC)C(=O)N[C@H](CCCNC(=N)N)C(=O)N[C@@H](CCCCNC(=N)N)C(=O)NCCCCCCCCCCCC(N)=O` [AVR-620, 5FPhAC-Ada-Tyr-DArg-Asp-Ala-Ile-Cpa-Thr-Asn-Arg-Tyr(Me)-Arg-Lys-Val-Leu-Abu-Gln-Leu-Ser-Ala-His-Orn-Leu-Leu-Gln-Asp-Ile-Nle-DArg-Har-Ada-NH2] ({Phenylacetyl(2,3,4,5,6-F5)-12Ado}-Y[dR]DAI[Phe(4-Cl)]TNRY(Me)RKVL[Abu]QLSAH[Orn]LLQDI[Nle][dR][hArg][12Ado]-NH2): the “Relative inhibitory potency, Lung HCC827” value in test [1] is on record as 3.753. Also, the “Relative inhibitory potency, Stomach KATOIII” value in test [2] stood at 1.769. Also, the “Relative inhibitory potency, Pancreatic CFPAC-1” value in test [3] amounted to 1.567.

Usually IC50 stands for the midpoint of a concentration-inhibition curve.
